In patent US20120283295A1, “INDAZOLE DERIVATIVES AND THEIR USE FOR BLOCKADING VOLTAGE DEPENDENT SODIUM CHANNELS” (University College London, priority 2009, published 2012):
Where two headings read alike, the source gives them in different places.

Tests used:
[1] = test system: voltage dependent sodium channels; assay: Sodium channel activity, guanidine flux; type: cell-based
Experimental: (§2) Biological assays to determine sodium channel activity, neuroprotection and Nav isoform selectivity were carried out according to the protocols set out in Clutterbuck et al (2009), J. Med. Chem. 52, 2694-2707.

Nav1.1 = Nav1.1 (Homo sapiens, UniProt P35498); assay: Nav isoform selectivity, Nav1.1; type: cell-based
Experimental: as §2

Nav1.2 = Nav1.2 (Homo sapiens, UniProt Q99250); assay: Nav isoform selectivity, Nav1.2 (EP); type: cell-based; set-up: concentration or dose not given beside the values
Nav1.3 = Nav1.3 (Homo sapiens, UniProt Q9NY46); assay: Nav isoform selectivity, Nav1.3; type: cell-based; set-up: concentration or dose not given beside the values
Chain of Nav1.3 (Q9NY46 whole entry, canonical isoform): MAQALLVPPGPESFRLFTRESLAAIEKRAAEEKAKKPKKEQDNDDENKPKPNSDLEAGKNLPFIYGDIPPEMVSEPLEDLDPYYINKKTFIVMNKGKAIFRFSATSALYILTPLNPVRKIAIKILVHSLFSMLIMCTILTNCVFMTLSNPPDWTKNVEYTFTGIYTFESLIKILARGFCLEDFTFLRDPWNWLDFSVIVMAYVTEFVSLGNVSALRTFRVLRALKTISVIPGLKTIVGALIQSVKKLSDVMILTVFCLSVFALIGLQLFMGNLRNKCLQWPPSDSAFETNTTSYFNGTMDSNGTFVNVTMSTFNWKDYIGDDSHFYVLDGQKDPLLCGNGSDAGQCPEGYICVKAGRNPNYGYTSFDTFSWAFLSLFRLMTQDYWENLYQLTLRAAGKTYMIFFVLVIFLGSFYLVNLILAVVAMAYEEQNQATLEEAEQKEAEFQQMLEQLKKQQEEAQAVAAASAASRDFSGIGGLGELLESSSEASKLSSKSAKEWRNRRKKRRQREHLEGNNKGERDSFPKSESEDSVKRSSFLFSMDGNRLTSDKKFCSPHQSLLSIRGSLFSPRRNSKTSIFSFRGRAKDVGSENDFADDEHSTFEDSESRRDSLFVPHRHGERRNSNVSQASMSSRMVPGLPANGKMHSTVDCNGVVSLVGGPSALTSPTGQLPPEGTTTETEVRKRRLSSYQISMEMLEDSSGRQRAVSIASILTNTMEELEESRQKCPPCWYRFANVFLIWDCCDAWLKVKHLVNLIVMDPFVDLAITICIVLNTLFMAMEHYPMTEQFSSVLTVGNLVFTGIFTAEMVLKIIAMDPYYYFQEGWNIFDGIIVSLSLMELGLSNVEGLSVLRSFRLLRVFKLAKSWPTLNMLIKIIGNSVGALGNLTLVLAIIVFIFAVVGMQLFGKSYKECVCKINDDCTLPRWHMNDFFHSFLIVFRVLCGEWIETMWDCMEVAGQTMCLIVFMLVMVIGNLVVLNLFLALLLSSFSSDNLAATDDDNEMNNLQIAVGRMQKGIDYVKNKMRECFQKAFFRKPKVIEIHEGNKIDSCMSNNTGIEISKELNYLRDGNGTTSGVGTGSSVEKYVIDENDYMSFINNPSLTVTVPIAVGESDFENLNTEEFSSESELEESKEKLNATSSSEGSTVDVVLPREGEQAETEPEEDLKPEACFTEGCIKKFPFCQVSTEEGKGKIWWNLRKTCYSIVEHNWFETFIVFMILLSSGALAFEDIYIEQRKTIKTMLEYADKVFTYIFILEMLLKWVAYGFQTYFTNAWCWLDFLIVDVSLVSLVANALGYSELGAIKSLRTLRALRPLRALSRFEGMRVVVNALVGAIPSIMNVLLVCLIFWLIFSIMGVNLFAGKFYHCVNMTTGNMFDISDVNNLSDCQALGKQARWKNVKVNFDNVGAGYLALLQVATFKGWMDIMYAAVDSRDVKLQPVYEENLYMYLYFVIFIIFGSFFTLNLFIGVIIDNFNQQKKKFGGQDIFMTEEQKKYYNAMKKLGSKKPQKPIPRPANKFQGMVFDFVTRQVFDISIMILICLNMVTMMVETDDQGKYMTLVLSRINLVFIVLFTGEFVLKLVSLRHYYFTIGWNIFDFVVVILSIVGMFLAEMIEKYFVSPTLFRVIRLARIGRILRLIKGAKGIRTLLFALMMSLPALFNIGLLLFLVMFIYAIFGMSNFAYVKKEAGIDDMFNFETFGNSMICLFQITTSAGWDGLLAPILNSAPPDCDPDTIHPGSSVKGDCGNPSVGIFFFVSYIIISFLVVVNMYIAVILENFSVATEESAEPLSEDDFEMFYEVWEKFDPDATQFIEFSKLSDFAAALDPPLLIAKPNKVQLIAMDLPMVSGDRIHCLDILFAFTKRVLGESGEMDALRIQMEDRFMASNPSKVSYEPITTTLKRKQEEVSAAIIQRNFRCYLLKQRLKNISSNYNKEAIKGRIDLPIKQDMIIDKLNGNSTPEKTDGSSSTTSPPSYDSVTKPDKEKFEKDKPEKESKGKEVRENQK

Nav1.4 = Nav1.4 (Homo sapiens, UniProt P35499); assay: Nav isoform selectivity, Nav1.4; type: cell-based; set-up: concentration or dose not given beside the values
Nav1.6 = Nav1.6 (Homo sapiens, UniProt Q9UQD0); assay: Nav isoform selectivity, Nav1.6; type: cell-based; set-up: concentration or dose not given beside the values
Nav1.7 = Nav1.7 (Homo sapiens, UniProt Q15858); assay: Nav isoform selectivity, Nav1.7; type: cell-based; set-up: concentration or dose not given beside the values
Nav1.8 = Nav1.8 (Homo sapiens, UniProt Q9Y5Y9); assay: Nav isoform selectivity, Nav1.8; type: cell-based; set-up: concentration or dose not given beside the values
Chain of Nav1.8 (Q9Y5Y9 whole entry, canonical isoform): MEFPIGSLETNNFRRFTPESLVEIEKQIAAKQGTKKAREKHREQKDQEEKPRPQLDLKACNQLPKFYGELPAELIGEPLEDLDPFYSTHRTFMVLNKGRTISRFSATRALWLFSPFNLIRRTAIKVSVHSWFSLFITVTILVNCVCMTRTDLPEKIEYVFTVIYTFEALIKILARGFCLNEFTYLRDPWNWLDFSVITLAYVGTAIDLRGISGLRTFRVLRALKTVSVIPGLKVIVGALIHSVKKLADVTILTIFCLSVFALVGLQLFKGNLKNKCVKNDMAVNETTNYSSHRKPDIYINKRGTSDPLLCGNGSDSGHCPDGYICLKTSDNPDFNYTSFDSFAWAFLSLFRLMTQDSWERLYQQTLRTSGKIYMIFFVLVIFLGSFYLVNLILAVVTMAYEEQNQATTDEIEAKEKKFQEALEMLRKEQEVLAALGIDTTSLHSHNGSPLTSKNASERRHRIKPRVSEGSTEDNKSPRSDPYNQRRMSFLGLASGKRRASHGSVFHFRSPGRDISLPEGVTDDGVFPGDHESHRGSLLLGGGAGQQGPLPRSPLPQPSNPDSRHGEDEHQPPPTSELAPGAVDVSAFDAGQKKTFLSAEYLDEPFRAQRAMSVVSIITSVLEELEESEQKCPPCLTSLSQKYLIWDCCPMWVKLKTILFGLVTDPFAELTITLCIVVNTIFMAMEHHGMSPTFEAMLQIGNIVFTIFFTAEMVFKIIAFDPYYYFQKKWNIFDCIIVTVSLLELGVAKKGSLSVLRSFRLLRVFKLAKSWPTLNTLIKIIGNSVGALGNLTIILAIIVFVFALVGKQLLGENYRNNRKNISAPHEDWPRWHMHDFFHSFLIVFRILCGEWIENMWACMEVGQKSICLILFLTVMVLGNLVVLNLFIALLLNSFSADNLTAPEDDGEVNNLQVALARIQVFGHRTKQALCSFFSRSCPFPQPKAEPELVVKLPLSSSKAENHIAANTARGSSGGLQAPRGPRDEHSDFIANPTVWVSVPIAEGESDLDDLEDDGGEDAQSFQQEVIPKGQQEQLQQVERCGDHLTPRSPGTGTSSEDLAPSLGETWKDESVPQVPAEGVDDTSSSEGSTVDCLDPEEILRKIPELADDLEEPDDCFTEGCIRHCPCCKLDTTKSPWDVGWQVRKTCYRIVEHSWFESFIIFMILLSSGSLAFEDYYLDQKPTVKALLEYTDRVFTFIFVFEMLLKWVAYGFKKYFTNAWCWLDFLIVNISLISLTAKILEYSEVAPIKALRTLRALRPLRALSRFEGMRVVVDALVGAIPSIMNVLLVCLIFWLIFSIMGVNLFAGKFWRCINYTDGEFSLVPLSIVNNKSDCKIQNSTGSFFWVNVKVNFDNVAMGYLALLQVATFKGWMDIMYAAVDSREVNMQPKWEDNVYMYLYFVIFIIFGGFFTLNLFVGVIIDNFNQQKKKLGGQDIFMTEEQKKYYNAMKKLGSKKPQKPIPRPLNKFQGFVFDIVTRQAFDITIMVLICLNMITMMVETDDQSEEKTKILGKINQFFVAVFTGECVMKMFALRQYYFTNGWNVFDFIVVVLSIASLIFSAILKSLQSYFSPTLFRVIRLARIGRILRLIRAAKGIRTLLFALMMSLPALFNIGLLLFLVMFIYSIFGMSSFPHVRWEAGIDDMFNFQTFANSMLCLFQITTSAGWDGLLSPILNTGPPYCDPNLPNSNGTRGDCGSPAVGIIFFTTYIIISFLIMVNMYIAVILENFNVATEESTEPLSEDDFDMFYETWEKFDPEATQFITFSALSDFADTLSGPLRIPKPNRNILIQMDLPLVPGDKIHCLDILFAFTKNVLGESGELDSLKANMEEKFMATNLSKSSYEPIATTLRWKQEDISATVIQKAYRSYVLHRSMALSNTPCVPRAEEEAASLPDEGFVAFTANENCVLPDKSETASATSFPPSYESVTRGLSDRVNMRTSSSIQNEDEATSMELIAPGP

Nav1.5 [2] = molecular target: T1, Nav1.5 (Homo sapiens, UniProt Q14524)
Nav1.5 [3] = molecular target: T1, Nav1.5; assay: Nav isoform selectivity, Nav1.5
[4] = test system: lymph node proliferative responses; assay: Immunosuppressive activity, contact-hypersensitivity paradigm; type: in vivo; settings: daily i.p. 5, 25 and 50 mg/kg from a day before sensitization; compared to vehicle
Experimental: (§1) The immunosuppressive activity of Example 15 was investigated using a simple contact-hypersensitivity paradigm. […] (Data not shown). Therefore, it was not necessary to dose-titrate Example 15 in order to avoid the immunosuppression-induced neuroprotection that would mask any real neuroprotective action of Example 15. In order to limit animal usage required for a full-dose-response, as proof-of-principle, 10 mg/kg of Example 15 i.p. was selected as an initial dose for study. This dose was within the range used in humans for sodium channel-blocking agents (1-50 mg/kg p.o.), particularly when scaled to mouse (USDHHS, 2005), and was well below the maximum tolerated dose (>50 mg/kg/daily). This was investigated for a neuroprotective potential in an induced-relapse during experimental autoimmune encephalomyelitis (EAE).
T cell proliferation per 5×10^5 lymph node cells or proliferation adjusted for the number of cells in the lymph nodes is shown in FIGS. 2 and 3.

[5] = in vivo
Experimental: as §1

[6] = test system: induced-relapse EAE in ABH mice; assay: Induced-relapse experimental autoimmune encephalomyelitis (EAE); type: in vivo
Excerpt: In many rodent models of MS, particularly during EAE the ABH mice, there is limited demyelination and nerve damage during the initial acute-phase of paralysis that occurs 2-3 weeks following sensitization (Baker et al. 1990, Jackson et al. 2005). Nerve damage and demyelination becomes more pronounced with disease duration and the development of relapsing disease (Baker et al. 1990). The neuroprotective potential of Example 15 was therefore examined in an induced-relapse EAE paradigm.
ABH mice were injected with 1 mg mouse spinal cord homogenate in Freunds adjuvant on days 0 and 7 p.i. to induce EAE and this was repeated on 27 p.i. to induce a relapse. Animals were injected daily i.p. with either vehicle or 10 mg/kg Example 15 from day 33 onwards. Animals were monitored for the development of clinical disease and the results represent: (A) The mean maximal clinical score, during the initial acute attack around day 15-20 and the clinical relapse around day 34-40, or the mean minimal clinical score during remission from paralytic attacks. (B) The mean daily clinical score following induction of relapse. (C) The time taken to fall from an accelerating rotorod was monitored pre-treatment on day 25 or on day 48 post-disease induction, when the experiment was terminated. (D) The spinal cords were removed and nerve content was measured using a neurofilament heavy chain (Nfh)-specific ELISA. The results represent the mean±SEM of 8 animals per group. *P<0.05, **P<0.01, ***P<0.001 compared to vehicle-treated animals.

[7] = 10 mg/kg daily i.p. from day 33, vs vehicle

| SMILES | IC50 [1] [µM] | Nav isoform inhibition (%) Nav1.1 (Nav1.1) [%] | Nav isoform inhibition (%) Nav1.2 EP (Nav1.2) [%] | Nav isoform inhibition (%) Nav1.2 EP UD (Nav1.2) | Nav isoform inhibition (%) Nav1.3 (Nav1.3) [%] | Nav isoform inhibition (%) Nav1.4 (Nav1.4) [%] | Nav isoform inhibition (%) Nav1.6 (Nav1.6) [%] | Nav isoform inhibition (%) Nav1.7 (Nav1.7) [%] | Nav isoform inhibition (%) Nav1.8 (Nav1.8) [%] | Nav isoform inhibition (%) Nav1.5 (Nav1.5 [3]) [%] | also measured |
| --- | --- | --- | --- | --- | --- | --- | --- | --- | --- | --- | --- |
| COc1ccc(C(=O)NCc2noc(-c3nn(CCn4ccnc4)c4ccccc34)n2)c(OC)c1OC [Example 16, N-((5-(1-(2-(1H-imidazol-1-yl)ethyl)-1H-indazol-3-yl)-1,2,4-oxadiazol-3-yl)methyl)-2,3,4-trimethoxybenzamide] |  | 24 | 1.1 | 1.5% | 39 | 43 | 63 | 96 | 48 |  | Nav isoform inhibition (%) Nav1.5 (Nav1.5 [2]): 64% |
| CC(C)(C)OC(=O)NCc1noc(-c2c3ccccc3nn2CCn2ccnc2)n1 [Example 2, tert-butyl (5-(2-(2-(1H-imidazol-1-yl)ethyl)-2H-indazol-3-yl)-1,2,4-oxadiazol-3-yl)methylcarbamate] | 11 |  |  |  |  |  |  |  |  |  |  |
| CC(C)(C)OC(=O)NCc1noc(-c2nn(CCn3ccnc3)c3ccccc23)n1 [Example 1, tert-butyl (5-(1-(2-(1H-imidazol-1-yl)ethyl)-1H-indazol-3-yl)-1,2,4-oxadiazol-3-yl)methylcarbamate] | 102 |  |  |  |  |  |  |  |  |  |  |
| O=C(NCc1noc(-c2nn(CCn3ccnc3)c3ccccc23)n1)c1ccccc1 [Example 15, N-((5-(1-(2-(1H-imidazol-1-yl)ethyl)-1H-indazol-3-yl)-1,2,4-oxadiazol-3-yl)methyl)benzamide] |  |  |  |  |  |  |  |  |  |  | Inhibition of lymph node proliferative responses [4]: failed to inhibit; Maximum tolerated dose [5]: > 50 mg/kg/daily; Loss of motor-function as a consequence of relapse, rotarod ([6]; 10 mg/kg daily i.p. from day 33, day 48, vs vehicle): significantly (P<0.001) reduced; Incidence, onset or maximum severity of relapsing EAE [6, 7]: did not significantly (P>0.05) inhibit; Nerve loss in spinal cord, neurofilament heavy chain ELISA [6, 7]: reduce nerve loss; Recovery of motor-function during remission (clinical score) [6, 7]: significantly (P<0.01) greater degree of recovery |
| COc1cccc(C(=O)NCc2noc(-c3c4ccccc4nn3CCn3ccnc3)n2)c1OC [Example 6, N-((5-(2-(2-(1H-imidazol-1-yl)ethyl)-2H-indazol-3-yl)-1,2,4-oxadiazol-3-yl)methyl)-2,3-dimethoxybenzamide] | 34 | 56 | 24.4 | 24.1% | 54 | 45 | 73 | 96 | 87 | 99 |  |
| COc1cccc(C(=O)NCc2noc(-c3c4ccccc4nn3CCn3ccnc3)n2)c1OC [Example 7, N-((5-(2-(2-(1H-imidazol-1-yl)ethyl)-2H-indazol-3-yl)-1,2,4-oxadiazol-3-yl)methyl)-2,3-dimethoxybenzamide] | 4 |  |  |  |  |  |  |  |  |  |  |
| COc1cccc(C(=O)NCc2noc(-c3nn(CCn4ccnc4)c4ccccc34)n2)c1OC [Example 30, N-((5-(1-(2-(1H-imidazol-1-yl)ethyl)-1H-indazol-3-yl)-1,2,4-oxadiazol-3-yl)methyl)-2,3-dimethoxybenzamide] |  | 26 | 0.1 | 6.4% | 14 | 33 | 77 | 94 | 62 | 71 |  |

The next lines start with results.

| IC50 [1] [µM] | Nav isoform inhibition (%) Nav1.1 (Nav1.1) [%] | Nav isoform inhibition (%) Nav1.2 EP (Nav1.2) [%] | Nav isoform inhibition (%) Nav1.2 EP UD (Nav1.2) | Nav isoform inhibition (%) Nav1.3 (Nav1.3) [%] | Nav isoform inhibition (%) Nav1.4 (Nav1.4) [%] | Nav isoform inhibition (%) Nav1.6 (Nav1.6) [%] | Nav isoform inhibition (%) Nav1.7 (Nav1.7) [%] | Nav isoform inhibition (%) Nav1.8 (Nav1.8) [%] | SMILES | Nav isoform inhibition (%) Nav1.5 (Nav1.5 [3]) [%] | also measured |
| --- | --- | --- | --- | --- | --- | --- | --- | --- | --- | --- | --- |
| 324 |  |  |  |  |  |  |  |  | O=C(NCc1noc(-c2c3ccccc3nn2CCn2ccnc2)n1)c1ccccc1 [Example 5, N-((5-(2-(2-(1H-imidazol-1-yl)ethyl)-2H-indazol-3-yl)-1,2,4-oxadiazol-3-yl)methyl)benzamide] |  |  |
| 32 | 96 | 98.5 | not detected | 41 | 98 | 79 | 46 | 94 | O=C(NCc1noc(-c2c3ccccc3nn2CCn2ccnc2)n1)c1cccc(OC(F)(F)F)c1 [Example 14, N-((5-(2-(2-(1H-imidazol-1-yl)ethyl)-2H-indazol-3-yl)-1,2,4-oxadiazol-3-yl)methyl)-3-(trifluoromethoxy)benzamide] | 95 |  |
|  | 83 |  |  | 63 | 97 | 86 | 33 | 91 | O=C(NCc1noc(-c2c3ccccc3nn2CCn2ccnc2)n1)c1ccc2ccccc2c1 [Example 11, N-((5-(2-(2-(1H-imidazol-1-yl)ethyl)-2H-indazol-3-yl)-1,2,4-oxadiazol-3-yl)methyl)-2-naphthamide] | 98 |  |
| 22 |  |  |  |  |  |  |  |  | O=C(NCc1noc(-c2c3ccccc3nn2CCn2ccnc2)n1)c1ccc(Cl)cc1 [Example 9, N-((5-(2-(2-(1H-imidazol-1-yl)ethyl)-2H-indazol-3-yl)-1,2,4-oxadiazol-3-yl)methyl)-4-chlorobenzamide] |  |  |
|  | 54 |  |  | 51 | 77 | 76 | 81 | 84 | O=C(NCc1noc(-c2c3ccccc3nn2CCn2ccnc2)n1)c1cccc(F)c1F [Example 10, N-((5-(2-(2-(1H-imidazol-1-yl)ethyl)-2H-indazol-3-yl)-1,2,4-oxadiazol-3-yl)methyl)-2,3-difluorobenzamide] | 84 |  |
